# Where two headings read alike, the source gives them in different places. Positions of bridges follow the written chain, without caps; N, C: chain ends. Non-standard residues stand in square brackets, D forms with d. Residues, ends and D or L forms follow the SMILES beside them. *: point of attachment. Isonicotinoyl(2-Ph) = O=C(c1ccnc(-c2ccccc2)c1)*; Decanoyl(3R-OH) = CCCCCCC[C@@H](O)CC(=O)*; dDab = NCC[C@@H](N)C(=O)O; Dab = NCC[C@H](N)C(=O)O
# Tests used:
# [1] = in vitro; conditions: human
# Experimental: Cytotoxicity of the synthesised peptides was evaluated by comparison with commercially available colistin (polymyxin E), polymyxin B (Sigma chemical Co., St. Louis, Mo., U.S.A.) and synthetic octapeptin C4 by conducting lactate dehydrogenase (LDH) assay. CC50 values calculated based on curve fitting of dose dependent inhibition of cell growth represented the cytotoxicity of the peptide. Human kidney 2 (HK2) cells were seeded as 2000 cells per well in a 384 well cell culture plate in a final volume of 20 μL in DMEM/F12 medium (Invitrogen #11330057), in which 10% of FBS was added. Cells were incubated for 24 hours at 37° C., 5% CO2 to allow cells to attach to the plates. Similar conditions were employed for HEK293 and HepG2 cytotoxicity assays.
# Cytotoxicity to HEK293 and HepG2 cells was determined using the resazurin assay (McMillian, M. K.; Li, L.; Parker, J. B.; Patel, L.; Zhong, Z.; Gunnett, J. W.; Powers, W. J.; Johnson, M. D. An improved resazurin-based cytotoxicity assay for hepatic cells; Cell Biol. Toxicol. 2002, 18, 157-173; O'Brien, J.; Wilson, I.; Orton, T.; Pognan, F. Investigation of the Alamar Blue (resazurin) fluorescent dye for the assessment of mammalian cell cytotoxicity. Eur. J. Biochem. 2000, 267, 5421-5426). In brief, HEK293 and HepG2 cells were seeded at 4000 cells/well in black-wall, clear-bottom 384-well plates (Corning, Australia) and incubated for 24 h at 37° C., 5% CO2. Compounds were then added into each well. After 24 h incubation, 5 μM resazurin was added per well and incubated at 37° C. for 2 h. Fluorescence intensity was then read using a Polarstar Omega with excitation/emission 560/590. The data was then analyzed using GraphPad Prism 6 software. CC50 values were determined using GraphPad Prism 6 software (Inc. La Jolla, Calif.).
# [2] = in vitro; conditions: human; remark: listed apart in the source
# Procedure, shortened: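 Cells were seeded at 4000 per well and allowed to attach for 24 h at 37 °C, 5% CO2, then exposed to compounds for 24 h. Resazurin (5 μM) was added for 2 h at 37 °C and fluorescence read at 560/590 nm. CC50 was derived by curve fitting of dose-dependent growth inhibition.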
# [3] = in vitro; conditions: human; remark: listed apart in the source
# Procedure, shortened: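 HK2 cells were seeded at 2000 per well in DMEM/F12 with 10% FBS and left to attach for 24 h at 37 °C, 5% CO2. They were then exposed for 24 h to 3-fold peptide dilutions starting from 600 μM solutions in quadruplicate. LDH release was read at 450 nm, and CC50 was fitted from dose-response curves.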
# [4] = tested on: P. aeruginosa GN_105, PmxR; conditions: GN 105, PmxR
# Procedure, shortened: (§1)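 Mid-log cultures grown in Mueller Hinton broth at 37° C were tested by 2-fold broth microdilution at 5×10^5 CFU/mL final. Compounds were dissolved in water and tested over a final range of 32 to 0.015 μg/mL.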
# [5] = tested on: A. baumannii GN_093 PmxR; conditions: GN 093 PmxR
# Procedure, shortened: as §1
# [6] = tested on: A. baumannii ATCC 19606; conditions: ATCC 19606
# Procedure, shortened: as §1
# [7] = tested on: E. coli ATCC 25922; conditions: ATCC 25922
# Procedure, shortened: as §1
# [8] = tested on: K. pneumoniae GN_102 PmxR; conditions: GN 102 PmxR
# Procedure, shortened: as §1
# [9] = tested on: K. pneumoniae GN_106, PmxR; conditions: GN 106, PmxR
# Procedure, shortened: as §1
# [10] = tested on: K. pneumoniae ATCC BAA-2146, NDM-1 pos; conditions: ATCC BAA-2146
# Procedure, shortened: as §1
# [11] = tested on: S. aureus ATCC 25923, MSSA; conditions: ATCC 25923
# Procedure, shortened: as §1
# [12] = tested on: P. aeruginosa ATCC 27853; conditions: ATCC 27853
# Procedure, shortened: as §1
# [13] = tested on: P. aeruginosa GN_043, PmxR
# Procedure, shortened: as §1
# [14] = tested on: K. pneumoniae ATCC 700603, MDR; conditions: ATCC 700603
# Procedure, shortened: as §1
# [15] = tested on: K. pneumoniae ATCC 13883; conditions: ATCC 13883
# Procedure, shortened: as §1
Compound,CC50 at 24 h [1] [µM],CC50 at 24 h [2] [µM],CC50 at 24 h [3] [µM],"MIC P. aeruginosa GN_105, PmxR [4] [µg/mL]",MIC A. baumannii GN_093 PmxR [5] [µg/mL],MIC A. baumannii ATCC 19606 [6] [µg/mL],MIC E. coli ATCC 25922 [7] [µg/mL],MIC K. pneumoniae GN_102 PmxR [8] [µg/mL],"MIC K. pneumoniae GN_106, PmxR [9] [µg/mL]","MIC K. pneumoniae ATCC BAA-2146, NDM-1 pos [10] [µg/mL]","MIC S. aureus ATCC 25923, MSSA [11] [µg/mL]",MIC P. aeruginosa ATCC 27853 [12] [µg/mL],"MIC P. aeruginosa GN_043, PmxR ([13]; P. aeruginosa GN_043, PmxR) [µg/mL]","MIC K. pneumoniae ATCC 700603, MDR [14] [µg/mL]",MIC K. pneumoniae ATCC 13883 [15] [µg/mL],"MIC P. aeruginosa GN_043, PmxR [13] [µg/mL]"
"CC(C)C[C@@H]1NC(=O)[C@H](CCN)NC(=O)[C@H](CCN)NC(=O)[C@H](Cc2ccccc2)NC(=O)[C@@H](CC(C)C)NC(=O)[C@H](CCN)NC(=O)[C@@H](NC(=O)[C@@H](CCN)NC(=O)c2ccnc(-c3ccccc3)c2)CCNC1=O [compound 6517, 3Phe4-PyCO-D-Dab-cyc[L-Dab-L-Dab-D-Leu-L-Phe-L-Dab-L-Dab-L-Leu]] ({Isonicotinoyl(2-Ph)}-[dDab][Dab][Dab][dL]F[Dab][Dab]L; lactam 2-C)",> 300,> 300,> 300,4,>32,>32,8,>32,32,32,>32,2,1,8,32,–
"CCCCCCC[C@@H](O)CC(=O)N[C@@H](CCN)C(=O)N[C@H]1CCNC(=O)[C@H](CC(C)C)NC(=O)[C@H](CCN)NC(=O)[C@H](CCN)NC(=O)[C@H](C)NC(=O)[C@@H](Cc2ccccc2)NC(=O)[C@H](CCN)NC1=O [compound 5563, 3(R)OH-nC9CO-L-Dab-cyc[L-Dab-L-Dab-D-Phe-L-Ala-L-Dab-L-Dab-L-Leu]] ({Decanoyl(3R-OH)}-[Dab][Dab][Dab][dF]A[Dab][Dab]L; lactam 2-C)",> 300,> 300,158,32,>32,>32,32,32,32,16,>32,2,>32,16,>32,–
"CC(C)C[C@@H]1NC(=O)[C@H](CCN)NC(=O)[C@H](CCN)NC(=O)[C@H](CC(C)C)NC(=O)[C@@H](Cc2ccccc2)NC(=O)[C@H](CCN)NC(=O)[C@@H](NC(=O)[C@@H](CCN)NC(=O)c2ccnc(-c3ccccc3)c2)CCNC1=O [compound 6525, 3Phe4-PyCO-D-Dab-cyc[L-Dab-L-Dab-D-Phe-L-Leu-L-Dab-L-Dab-L-Leu]] ({Isonicotinoyl(2-Ph)}-[dDab][Dab][Dab][dF]L[Dab][Dab]L; lactam 2-C)",> 300,> 300,> 300,8,>32,>32,4,16,>32,16,>32,4,–,8,16,2

# Source: US11279733B2, “Peptide antibiotics” (priority 2017, dated 2022)
